Tests used:
Test in all cases: relative viability (nuclei count vs DMSO), 5 days (fraction); higher = more cells survive
[1] = compound: CN(c1ncccc1CNc1nc(Nc2ccc3c(c2)CC(=O)N3)ncc1C(F)(F)F)S(C)(=O)=O + CS(=O)(=O)CCNCc1ccc(-c2ccc3ncnc(Nc4ccc(OCc5cccc(F)c5)c(Cl)c4)c3c2)o1 [Lapatinib] (partner 2 µM)
How it was run: (§1)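 Values are medians from duplicate plates. Each reflects relative viability, defined as the nuclei count of treated wells over that of vehicle wells. Lung cancer cell lines in 1536-well plates were pin-tool dosed one day after seeding with one drug alone or with a fixed anchor-drug dose plus five library-drug doses (not always all listed) in √10 steps, then fixed, stained and imaged at 4× after 5 days.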

[2] = compound: CN(c1ncccc1CNc1nc(Nc2ccc3c(c2)CC(=O)N3)ncc1C(F)(F)F)S(C)(=O)=O + C[C@@H](Oc1cc(-c2cnn(C3CCNCC3)c2)cnc1N)c1c(Cl)ccc(F)c1Cl [Crizotinib] (partner 1 µM)
How it was run: as §1

[3] = compound: CN(c1ncccc1CNc1nc(Nc2ccc3c(c2)CC(=O)N3)ncc1C(F)(F)F)S(C)(=O)=O + Cc1cc(Nc2cc(N3CCN(C)CC3)nc(Sc3ccc(NC(=O)C4CC4)cc3)n2)n[nH]1 [Tozasertib] (partner 0.1 µM)
How it was run: as §1

[4] = compound: CN(c1ncccc1CNc1nc(Nc2ccc3c(c2)CC(=O)N3)ncc1C(F)(F)F)S(C)(=O)=O + Nc1ncn([C@H]2C[C@H](O)[C@@H](CO)O2)c(=O)n1 [Decitabine] (partner 2 µM)
How it was run: as §1

| Cell Line | relative viability ([1]; first compound 0.01 µM) | relative viability ([1]; first compound 0.03162 µM) | relative viability ([1]; first compound 0.1 µM) | relative viability ([1]; first compound 0.3162 µM) | relative viability ([1]; first compound 1 µM) | relative viability ([2]; first compound 0.01 µM) | relative viability ([2]; first compound 0.03162 µM) | relative viability ([2]; first compound 0.1 µM) | relative viability ([2]; first compound 0.3162 µM) | relative viability ([2]; first compound 1 µM) | relative viability ([3]; first compound 0.01 µM) | relative viability ([3]; first compound 0.03162 µM) | relative viability ([3]; first compound 0.1 µM) | relative viability ([3]; first compound 0.3162 µM) | relative viability ([3]; first compound 1 µM) | relative viability ([4]; first compound 0.01 µM) | relative viability ([4]; first compound 0.03162 µM) | relative viability ([4]; first compound 0.1 µM) | relative viability ([4]; first compound 0.3162 µM) | relative viability ([4]; first compound 1 µM) |
| --- | --- | --- | --- | --- | --- | --- | --- | --- | --- | --- | --- | --- | --- | --- | --- | --- | --- | --- | --- | --- |
| PC-14 | 0.366 | 0.373 | 0.292 | 0.323 | 0.33 | 0.874 | 0.858 | 1.04 | 0.872 | 0.765 | 0.531 | 0.705 | 0.54 | 0.59 | 0.52 | 0.197 | 0.225 | 0.254 | 0.245 | 0.269 |
| RERF-LC-KJ | 0.926 | 0.988 | 0.854 | 0.886 | 0.91 | 0.841 | 0.823 | 0.85 | 0.779 | 0.86 | 0.468 | 0.466 | 0.467 | 0.514 | 0.348 | 0.651 | 0.71 | 0.645 | 0.793 | 0.764 |
| SK-LU-1 | 0.885 | 1.13 | 0.912 | 0.722 | 0.874 | 0.944 | 0.882 | 0.858 | 0.808 | 0.784 | 0.339 | 0.308 | 0.307 | 0.294 | 0.262 | 0.641 | 0.689 | 0.636 | 0.639 | 0.576 |
| SK-MES-1 | 0.456 | 0.456 | 0.473 | 0.422 | 0.474 | 0.943 | 0.989 | 0.944 | 0.983 | 0.846 | 0.896 | 0.923 | 0.852 | 0.836 | 0.47 | 0.441 | 0.467 | 0.465 | 0.36 | 0.363 |
| SW 1573 | 1.18 | 1.09 | 1.21 | 1.27 | 1.08 | 0.874 | 0.732 | 0.777 | 0.843 | 0.78 | 0.166 | 0.198 | 0.188 | 0.201 | 0.16 | 0.583 | 0.492 | 0.469 | 0.657 | 0.68 |
| UMC-11 | 1.03 | 1.06 | 0.866 | 0.995 | 0.678 | 0.59 | 0.584 | 0.654 | 0.476 | 0.298 | 0.198 | 0.184 | 0.187 | 0.181 | 0.206 | 0.568 | 0.681 | 0.626 | 0.838 | 0.628 |

— the supplement of paper PMC10307832
